Experimental data published in publication PMC12655637, “Design, Synthesis, and Mechanistic Study of Novel Ciprofloxacin/Thiazole Chalcone Hybrids as Potential Anticancer Agents” (Pharmaceuticals, 2025).
pIC50: −log10 of the molar value.

What was measured:
[1] = system: 60 human cancer cell lines; experiment: NCI-60 screening, full panel (mean growth, MID a, ranges over all lines)
Experimental: The screening was performed in accordance with the protocols set forth by the Drug Evaluation Department of the National Cancer Institute (NCI), Bethesda, USA, for in vitro anticancer efficacy at a single concentration of 10 µM against a panel of 60 cancer cell lines derived from nine distinct organs (https://dctd.cancer.gov/data-tools-biospecimens/data (accessed on 15 March 2023 and 6 January 2024)) [37].
The log10 GI50, log10 TGI, and log10 LC50 values were subsequently calculated as the averages of the log10 values of the respective individual GI50, TGI, and LC50 measurements. Negative numbers signified the most sensitive cell lines.
One way to measure a compound’s selectivity is to divide its subpanel MID^b (in μM) by the MID^a (in μM), which is the average sensitivity of all cell lines to the test agent.
At the National Cancer Institute (NCI) in Bethesda, USA, researchers examined the anticancer potential of the target compounds under investigation using nine panels of sixty different cell lines obtained from nine different cancers that were housed in the NCI library. Following the protocols laid out by the National Cancer Institute (https://dctd.cancer.gov/data-tools-biospecimens/data (accessed on 15 March 2023 and 6 January 2024)), the screening procedures were carried out [37]. The anticancer screening was carried out at a single dose of 10^−5 M; the results obtained were expressed as growth inhibition (%).
The anti-cancer potential of the tested compounds was evaluated at the National cancer institute (NCI), Bethesda, USA, against 9 panels of 60 various cell lines derived from nine human tumours available usually at NCI library. The procedures for the screening were described in details in NCI website (dttp://www.dtp.nci.nih.gov.) and were done according to NCI protocols. The anticancer screening was carried out at single dose of 10^-5 M. The results obtained as growth inhibition (%).
Cell lines were grown in Roswell Park Memorial Institute medium (RPMI) with 5% fetal bovine serum and 2% μM L-glutamine. Cancer cells are inoculated into 96 well microtiter plates in 100 μL at plating densities ranging from 5000 to 40,000 cells/well depending on the doubling time of individual cell lines. Then microtiter plates are incubated at 37 °C, 5% CO2, 95% air and 100% relative humidity for 24 h prior to the addition of the tested compounds. After 24 h, two plates of each cell line are fixed in situ with trichloroacetic acid (TCA). The tested compounds were dissolved in dimethyl sulfoxide (DMSO) and stored in the freezer prior to use. An aliquot of frozen drug concentrate is diluted to the desired concentration with complete medium containing 50 μg/mL gentamicin.

OVCAR-3 = experiment: NCI-60 screening, one-dose (10 µM) and five-dose, SRB; format: cell-based
SK-MEL-5 = experiment: as above; format: cell-based, human
SK-MEL-28 = experiment: as above; format: cell-based, human
HOP-62 = experiment: as above; format: cell-based, human
SF-268 = experiment: as above; format: cell-based, human
786−0 = experiment: as above; format: cell-based, human
OVCAR-8 = experiment: as above; format: cell-based, human
UACC-257 = experiment: as above; format: cell-based, human
SK-MEL-2 = experiment: as above; format: cell-based, human
SNB-19 = experiment: as above; format: cell-based
UACC-62 = experiment: as above; format: cell-based
MCF7 = experiment: as above; format: cell-based, human
M14 = experiment: as above; format: cell-based, human
IGROV1 = experiment: as above; format: cell-based, human
[2] = Homo sapiens, five-dose, OVCAR-3
[3] = Homo sapiens, five-dose, SK-MEL-5
[4] = Homo sapiens, five-dose, SK-MEL-28
[5] = Homo sapiens, five-dose, HOP-62
[6] = Homo sapiens, five-dose, SF-268
[7] = Homo sapiens, five-dose, OVCAR-8
[8] = Homo sapiens, five-dose, UACC-257
[9] = Homo sapiens, five-dose, SK-MEL-2
[10] = Homo sapiens, five-dose, SNB-19
[11] = Homo sapiens, five-dose, UACC-62
[12] = Homo sapiens, IGROV-1, five-dose, IGROV1

Cc1nc(SCC(=O)N2CCN(c3cc4c(cc3F)c(=O)c(C(=O)O)cn4C3CC3)CC2)sc1C(=O)/C=C/c1cccc(F)c1 [Compound 4d, (E)-1-Cyclopropyl-6-fluoro-7-(4-(2-((5-(3-(3-fluorophenyl)acryloyl)-4-methylthiazol-2-yl)thio)acetyl)piperazin-1-yl)-4-oxo-1,4-dihydroquinoline-3-carboxylic Acid]
CC50 ([1]; Homo sapiens, read-out: LC50): 0.6 to 100 µM | activity at 10 µM ([1]; Homo sapiens, read-out: Mean growth percentage): 20.2% | Full-panel MG-MID ([1]; mean sensitivity across all cell lines in the panel): 70.2 µM | activity at 10 µM (OVCAR-3; Homo sapiens, 10 μM, OVCAR-3, Ovarian Cancer, read-out: Growth percentage): -10.9% | GI50 (OVCAR-3; [2]): 13.5 µM | pIC50 (OVCAR-3; [2]): < 4.00 | CC50 (OVCAR-3; Homo sapiens, five-dose, OVCAR-3, read-out: LC50 (the source's name)): > 100 µM | TGI (OVCAR-3; five-dose, OVCAR-3): 100.0 µM | activity at 10 µM (SK-MEL-5; Homo sapiens, 10 μM, SK-MEL-5, Melanoma, read-out: Growth percentage): 45.1% | GI50 (SK-MEL-5; [3]): 42.7 µM | pIC50 (SK-MEL-5; [3]): < 4.00 | CC50 (SK-MEL-5; Homo sapiens, five-dose, SK-MEL-5, read-out: LC50 (the source's name)): > 100 µM | TGI (SK-MEL-5; five-dose, SK-MEL-5): 100.0 µM | activity at 10 µM (SK-MEL-28; Homo sapiens, 10 μM, SK-MEL-28, Melanoma, read-out: Growth percentage): 77.5% | GI50 (SK-MEL-28; [4]): > 100 µM | pIC50 (SK-MEL-28; [4]): < 4.00 | CC50 (SK-MEL-28; Homo sapiens, five-dose, SK-MEL-28, read-out: LC50 (the source's name)): > 100 µM | TGI (SK-MEL-28; five-dose, SK-MEL-28): 100.0 µM | activity at 10 µM (HOP-62; Homo sapiens, HOP-62, 10 μM, HOP-62, Non-Small-Cell Lung Cancer, read-out: Growth percentage): -55.3% | GI50 (HOP-62; [5]): 7.4 µM | pIC50 (HOP-62; [5]): 4.14 | CC50 (HOP-62; Homo sapiens, five-dose, HOP-62, read-out: LC50 (the source's name)): > 100 µM | TGI (HOP-62; five-dose, HOP-62): 100.0 µM | activity at 10 µM (SF-268; Homo sapiens, 10 μM, SF-268, CNS Cancer, read-out: Growth percentage): 25.7% | GI50 (SF-268; [6]): 27.5 µM | pIC50 (SF-268; [6]): < 4.00 | CC50 (SF-268; Homo sapiens, five-dose, SF-268, read-out: LC50 (the source's name)): > 100 µM | TGI (SF-268; five-dose, SF-268): 100.0 µM | activity at 10 µM (786−0; Homo sapiens, 10 μM, 786−0, Renal Cancer, read-out: Growth percentage): 41.9% | pIC50 (786−0; Homo sapiens, five-dose, 786−0): < 4.00 | CC50 (786−0; Homo sapiens, five-dose, 786−0, read-out: LC50 (the source's name)): > 100 µM | TGI (786−0; five-dose, 786−0): 100.0 µM | activity at 10 µM (OVCAR-8; Homo sapiens, 10 μM, OVCAR-8, Ovarian Cancer, read-out: Growth percentage): 35.2% | GI50 (OVCAR-8; [7]): > 100 µM | pIC50 (OVCAR-8; [7]): < 4.00 | CC50 (OVCAR-8; Homo sapiens, five-dose, OVCAR-8, read-out: LC50 (the source's name)): > 100 µM | TGI (OVCAR-8; five-dose, OVCAR-8): 100.0 µM | activity at 10 µM (UACC-257; Homo sapiens, 10 μM, UACC-257, Melanoma, read-out: Growth percentage): 53.9% | GI50 (UACC-257; [8]): 46.8 µM | pIC50 (UACC-257; [8]): < 4.00 | CC50 (UACC-257; Homo sapiens, five-dose, UACC-257, read-out: LC50 (the source's name)): > 100 µM | TGI (UACC-257; five-dose, UACC-257): 100.0 µM | activity at 10 µM (SK-MEL-2; Homo sapiens, 10 μM, SK-MEL-2, Melanoma, read-out: Growth percentage): -15.4% | GI50 (SK-MEL-2; [9]): > 100 µM | pIC50 (SK-MEL-2; [9]): < 4.00 | CC50 (SK-MEL-2; Homo sapiens, five-dose, SK-MEL-2, read-out: LC50 (the source's name)): > 100 µM | TGI (SK-MEL-2; five-dose, SK-MEL-2): 100.0 µM | activity at 10 µM (SNB-19; Homo sapiens, 10 μM, SNB-19, CNS Cancer, read-out: Growth percentage): 12.2% | GI50 (SNB-19; [10]): 6.9 µM | pIC50 (SNB-19; [10]): 4.55 | CC50 (SNB-19; Homo sapiens, five-dose, SNB-19, read-out: LC50 (the source's name)): > 100 µM | TGI (SNB-19; five-dose, SNB-19): 100.0 µM | activity at 10 µM (UACC-62; Homo sapiens, 10 μM, UACC-62, Melanoma, read-out: Growth percentage): 33.1% | GI50 (UACC-62; [11]): 25.7 µM | pIC50 (UACC-62; [11]): < 4.00 | CC50 (UACC-62; Homo sapiens, five-dose, UACC-62, read-out: LC50 (the source's name)): > 100 µM | TGI (UACC-62; five-dose, UACC-62): 100.0 µM | activity at 10 µM (MCF7; Homo sapiens, MCF7, 10 μM, MCF7, Breast Cancer, read-out: Growth percentage): -57.6% | GI50 (MCF7; Homo sapiens, five-dose, MCF7): 0.49 µM | pIC50 (MCF7; Homo sapiens, five-dose, MCF7): 6.16 | CC50 (MCF7; Homo sapiens, five-dose, MCF7, read-out: LC50 (the source's name)): > 100 µM | TGI (MCF7; five-dose, MCF7): 100.0 µM | activity at 10 µM (M14; Homo sapiens, 10 μM, M14, Melanoma, read-out: Growth percentage): -15.3% | GI50 (M14; Homo sapiens, five-dose, M14): 12 µM | pIC50 (M14; Homo sapiens, five-dose, M14): < 4.00 | CC50 (M14; Homo sapiens, five-dose, M14, read-out: LC50 (the source's name)): > 100 µM | TGI (M14; five-dose, M14): 100.0 µM | Growth percentage (IGROV1; 10 μM, IGROV1, Ovarian Cancer): 44.6% | GI50 (IGROV1; [12]): > 100 µM | pIC50 (IGROV1; [12]): < 4.00 | CC50 (IGROV1; Homo sapiens, IGROV-1, five-dose, IGROV1, read-out: LC50 (the source's name)): > 100 µM | TGI (IGROV1; five-dose, IGROV1): 100.0 µM
